Measurements as given in ChEMBL document CHEMBL1201862, “PubChem BioAssay data set” (2004).
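Briefly, cells in 96-well plates were exposed to five compound concentrations for 48 h, and endpoints were estimated by linear interpolation. The concentration for 50% growth inhibition is given as GI50.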 Active and inactive are the calls of the source. No stated cut-off is given here; in the data, active = GI50 up to about 1.1 µM and inactive = higher.

Legend:
Experiment in all cases: DTP human tumour cell line panel, 48 h
DMS-114 = tested on: DMS-114
RXF 631 = tested on: RXF 631
DLD-1 = tested on: DLD-1
KM-20L2 = tested on: KM-20L2
SNB-78 = tested on: SNB-78
HOP-18 = tested on: HOP-18
XF498 = tested on: XF498
LXFL 529 = tested on: LXFL 529
DMS-273 = tested on: DMS-273

Compound | GI50 (DMS-114) | GI50 (RXF 631) | GI50 (DLD-1) | GI50 (KM-20L2) | GI50 (SNB-78) | GI50 (HOP-18) | GI50 (XF498) | GI50 (LXFL 529) | GI50 (DMS-273)
O=NN(CCCl)C(=O)NC1CCC(CC2CCC(NC(=O)N(CCCl)N=O)CC2)CC1 (configuration not stated) | 24.4 µM (inactive) | 41.7 µM (inactive) | 23.6 µM (inactive) | > 74.1 µM (inactive) | 29.5 µM (inactive) | > 38 µM (inactive) | 13 µM (inactive) | 36.1 µM (inactive) | 21.9 µM (inactive)
O=C1CCCn2c3ccccc3c3ccnc1c32 | 35 µM (inactive) | – | 38.3 µM (inactive) | 51.3 µM (inactive) | 44.8 µM (inactive) | 58.3 µM (inactive) | 25.4 µM (inactive) | – | 46.6 µM (inactive)
Nc1cc2c(cc1[N+](=O)[O-])[nH]c1c(-c3ccccc3)nccc12 | 12.7 µM (inactive) | – | 8.2 µM (inactive) | 23.6 µM (inactive) | 11.2 µM (inactive) | 8.41 µM (inactive) | 40 µM (inactive) | – | 18.1 µM (inactive)
Cc1cc(O)nc(NN2C(Cl)C(=O)C2c2cccc(O)c2)n1 (configuration not stated) | 5.11 µM (inactive) | – | – | 10.3 µM (inactive) | 7.43 µM (inactive) | 2.39 µM (inactive) | – | 5 µM (inactive) | 3.13 µM (inactive)
CCCCOC(=O)NC(=O)c1cn(CCCOC(=O)CCCCCCCCC(=O)OCCCn2cc(C(=O)NC(=O)OCCCC)c(=O)n(C)c2=O)c(=O)n(C)c1=O | > 100 µM (inactive) | > 100 µM (inactive) | > 100 µM (inactive) | > 100 µM (inactive) | > 100 µM (inactive) | – | > 100 µM (inactive) | > 100 µM (inactive) | > 100 µM (inactive)
COc1ccc(/C(=N\NC(=O)NN)C(c2ccc(OC)cc2)C2(O)C(=O)Nc3c(Cl)cc(Cl)cc32)cc1 (configuration not stated) | 90.8 µM (inactive) | > 100 µM (inactive) | > 100 µM (inactive) | > 100 µM (inactive) | > 100 µM (inactive) | > 100 µM (inactive) | > 100 µM (inactive) | > 100 µM (inactive) | –
CCOC(=O)/C(=C/c1ccccn1)C(=O)c1ccccc1 | 14.3 µM (inactive) | 13.6 µM (inactive) | 10.4 µM (inactive) | 15.5 µM (inactive) | 17 µM (inactive) | 18.3 µM (inactive) | 16.1 µM (inactive) | 11.1 µM (inactive) | 12.1 µM (inactive)
CC(=O)NC1COC(COC(=O)CCCCCCCCCCNC(=O)c2ccc([N+](=O)[O-])c3c(=O)c4ccccc4[nH]c23)C(O)C1OC(C)C(=O)NC(C(=O)NC(CCC(N)=O)C(=O)OCc1ccccc1)C(C)C (configuration not stated) | 15.4 µM (inactive) | 27.7 µM (inactive) | 3.21 µM (inactive) | 16.3 µM (inactive) | 10.2 µM (inactive) | 16.8 µM (inactive) | 5.41 µM (inactive) | 17.7 µM (inactive) | 8.69 µM (inactive)
Cc1cccc2c1C(=O)OC2(c1cccc2ccccc12)c1cccc2ccccc12 | 40.7 µM (inactive) | 11.3 µM (inactive) | > 100 µM (inactive) | > 100 µM (inactive) | – | 52.6 µM (inactive) | – | > 100 µM (inactive) | > 100 µM (inactive)
Cc1c2ccc3ccccc3c2c[n+]2ccccc12 | 4.35 µM (inactive) | – | 24 µM (inactive) | 19.7 µM (inactive) | 28.8 µM (inactive) | – | – | 5.36 µM (inactive) | 16.2 µM (inactive)
CCN(CC)C(=S)SS(C)(=O)=O | – | – | 18 µM (inactive) | – | 23.7 µM (inactive) | 38.2 µM (inactive) | – | 16.4 µM (inactive) | 20.3 µM (inactive)
CCOC(=O)C12CC1(C(=O)OCC)C1CCC2C1 (configuration not stated) | 74.3 µM (inactive) | > 100 µM (inactive) | > 100 µM (inactive) | – | – | > 100 µM (inactive) | – | > 100 µM (inactive) | > 100 µM (inactive)
Cc1cccc(/N=C2\NC(=O)C(CC(=O)Nc3ccc(C)cc3C)S2)c1 (configuration not stated) | 49.8 µM (inactive) | – | > 100 µM (inactive) | 97.7 µM (inactive) | > 100 µM (inactive) | – | 53.1 µM (inactive) | > 100 µM (inactive) | > 100 µM (inactive)
O=P1(Oc2ccc(Cl)cc2Cl)Oc2ccc3ccccc3c2-c2c(ccc3ccccc23)O1 | – | – | 32.1 µM (inactive) | 33.5 µM (inactive) | 32.4 µM (inactive) | 61.5 µM (inactive) | 24.5 µM (inactive) | – | 41.3 µM (inactive)
O/N=C1/C(=C/c2ccc(F)cc2)CCCC1C(NO)c1ccc(F)cc1 (configuration not stated) | 29.9 µM (inactive) | 33 µM (inactive) | 65.2 µM (inactive) | 28.8 µM (inactive) | 67 µM (inactive) | 21.1 µM (inactive) | 64 µM (inactive) | 38.4 µM (inactive) | 40.6 µM (inactive)
CCOC(OCC)(OCC)C(Br)CC (configuration not stated) | 12.5 µM (inactive) | > 100 µM (inactive) | 22 µM (inactive) | 11.8 µM (inactive) | > 100 µM (inactive) | > 100 µM (inactive) | > 100 µM (inactive) | 51.9 µM (inactive) | 19.1 µM (inactive)
COC(=O)C1=C(C)N(NC(=O)c2ccccc2)C2(O)CCCC(=O)C12C (configuration not stated) | > 100 µM (inactive) | > 100 µM (inactive) | > 100 µM (inactive) | > 100 µM (inactive) | > 100 µM (inactive) | < 0.01 µM (active) | > 100 µM (inactive) | > 100 µM (inactive) | > 100 µM (inactive)
CC(=O)OCC1OC(Nc2nc(O)n(C)c(=O)c2-c2csc(N)n2)C(OC(C)=O)C(OC(C)=O)C1OC(C)=O (configuration not stated) | > 100 µM (inactive) | > 100 µM (inactive) | > 100 µM (inactive) | > 100 µM (inactive) | > 100 µM (inactive) | 20 µM (inactive) | – | > 100 µM (inactive) | –
CC(=O)OCc1ncccc1C(OC(C)=O)OC(C)=O | > 100 µM (inactive) | – | > 100 µM (inactive) | > 100 µM (inactive) | > 100 µM (inactive) | > 100 µM (inactive) | > 100 µM (inactive) | > 100 µM (inactive) | > 100 µM (inactive)
CCOc1ccc(OCC(=O)O)c2c1CCCC2=O | > 100 µM (inactive) | > 100 µM (inactive) | > 100 µM (inactive) | – | > 100 µM (inactive) | – | > 100 µM (inactive) | > 100 µM (inactive) | > 100 µM (inactive)
CC(=O)OC(CCC1(C)OC1COc1ccc(CCNC(=O)C=C(C)C)cc1)C(C)(C)OC(C)=O (configuration not stated) | 0.19 µM (active) | – | – | 62.1 µM (inactive) | 24.5 µM (inactive) | > 100 µM (inactive) | 23.2 µM (inactive) | 12.7 µM (inactive) | 22.5 µM (inactive)
COc1nc2[nH]ccc2c(=O)n1C | > 100 µM (inactive) | > 100 µM (inactive) | > 100 µM (inactive) | – | > 100 µM (inactive) | > 100 µM (inactive) | > 100 µM (inactive) | > 100 µM (inactive) | > 100 µM (inactive)
COc1cccc2c1C(=O)c1c(O)c3c(c(O)c1C2=O)C[C@@](O)(C(=O)CO)CC3OC1CC(NCCCCC(OC(C)=O)OC(C)=O)C(O)C(C)O1 (some centres not stated) | 0.00402 µM (active) | 0.00137 µM (active) | 0.00342 µM (active) | 0.00242 µM (active) | 0.00209 µM (active) | 0.0033 µM (active) | – | 0.00214 µM (active) | –
Cn1cnc([N+](=O)[O-])c1Sc1nccc(O)n1 | > 100 µM (inactive) | > 100 µM (inactive) | > 100 µM (inactive) | – | > 100 µM (inactive) | > 100 µM (inactive) | > 100 µM (inactive) | > 100 µM (inactive) | > 100 µM (inactive)
CC(C)c1ccc(O)c(=O)cc1 [GAMMA-THUJAPLICIN] | 2.92 µM (inactive) | – | 5.56 µM (inactive) | 3.99 µM (inactive) | 20 µM (inactive) | 5.62 µM (inactive) | 15.1 µM (inactive) | 5.53 µM (inactive) | 3.89 µM (inactive)
